Laboratory results from patent publication US8716355B2, “Hydroxylated tolans and related compounds in the treatment of a cancer” (Kent State University, priority 2007, dated 2014).
Read-outs that look alike come from different tables or passages of the source.

Columns and labels:
HSV-1 [1] = experiment: HSV-1 replication in infected Vero cells (plaque assay); format: cell-based, Herpes Simplex Virus-Type 1
Method: For this purpose HSV-1 replication at 24, 48 and 72 h was examined in the presence or absence of varying concentrations of the polyphenol.
The SI is the ratio of the CD50 divided by a selected inhibitory concentration (IC %).
Viral inhibition by Tolan-3 appeared to occur after viral entry into cells. […] Subsequently, the compound was removed and replaced with culture medium alone, and the incubated continued for 48 or 72 more hrs. In a second experiment, HSV-1 infected Vero cells were incubated with 350 μM Tolan-3 for 48 h. Thereafter, the Tolan-3 was removed and replaced by medium and the incubation continued for an additional 24 h. Viral titers were calculated by a standard plaque assay.

HSV-1 [2] = experiment: Direct inactivation, attachment and penetration of HSV-1; format: cell-based, Herpes Simplex Virus-Type 1
Method: To determine whether Tolan-3 directly inactivated the virus, Tolan-3 was incubated with HSV-1 at room temperature for 1, 30 or 60 minutes while controls were also incubated with HSV-1 at room temperature without Tolan-3. The treated or control virus was plated onto Vero cells.

prostate cancer = experiment: Prostate cancer patients (Example VIII A); format: in vivo, human; conditions: daily 10 μg to 5 mg/Kg; no significant differences between the four groups
Method: A group of 40 men aged 55-75 suffering from prostate cancer receive a daily dosage of between 10 μg and 5 mg/Kg body weight of KST-201, KST-213, KST-301 or KST-401 (10 patients per compound). Examination of the patients by clinical, radiographic and histopathological tests show significant shrinkage in tumors, and signs of cell death in 38% of the patients; there are no significant differences between the four treatment groups.

breast cancer = experiment: Breast cancer prevention, skin patch (Example VIII C); format: in vivo, human; conditions: transdermal patch 10 mg to 100 mg daily, one-year study
Method: This study investigates whether KST-201, KST-213, KST-301 and KST-401 administered transdermally each day through a skin patch aid in preventing breast cancer or metastatic cancer following cancer therapy. Patches are prepared with a lipophilic carrier which is readily absorbed through the skin (glycerol cold cream containing glycerin and peanut oil). The HT compound is mixed with the lipophilic cream such that each patch comprises 10 mg to 100 mg of active compound. The patch is applied to the skin each day, and rapid absorption occurs. After two hours, the patch is removed.

ovarian cancer = experiment: Ovarian cancer patients (Example VIII D); format: in vivo, human; conditions: daily gelatin capsule 200 mg
Method: A study is carried out in a group of 40 women with ovarian cancer of various grades to determine the effect of treatment with compounds of KST-201, KST-213, KST-301 and KST-401. The administration protocol involves daily administration of a gelatin capsule containing 200 mg of active compound.

colon cancer = experiment: Colon cancer patients (Example VIII E); format: in vivo, human
Method: Eight patients suffering from advanced colon cancer are treated daily for three weeks with an intravenous infusion of 2 g of the compounds KST-201, KST-213, KST-301 or KST-401 dissolved in saline. Two patients are assigned to each compound. The compounds are dissolved in sterile saline. […] Progression of the tumor is also arrested over the treatment period.
Another eight patients with terminal colon cancer are treated by daily bolus injections (intravenous or intramuscular) of 2 g of KST-201, KST-213, KST-301 or KST-401.

Vero cells = experiment: Cytotoxicity (CD50) on Vero cells; format: cell-based; conditions: 48 hours of exposure
Description: See Example II for tumor cell cytotoxicity of these compounds. […] NAB group 32 contains two compounds, Tolan-2 (also designated herein as KST-201) and Stil-2. Based on the NAB, they were classified as topological isomers. However, chemically they differ because Stil-2, a […], contained a double bonded linker, while Tolan-2 contained a triple bonded linker. The cytotoxicity of the two molecules on Vero cells differed markedly: Tolan-2 was less toxic than Stil-2.

Mushroom tyrosinase = experiment: Inhibition of mushroom tyrosinase activity; format: biochemical; conditions: concentration not given
Method: All chemical used for reagents were purchased from Sigma Chemical Company. KST201 at each tested concentration (1000, 250 and 100 μM) was dissolved in 10% ethanol from a master mixture of the drug prepared at 0.1M in 100% ethanol.
Mushroom tyrosinase (Sigma) was diluted in 50 mM phosphate buffer, pH 6.5 to yield a concentration of 16 U/μl. […] A master mix containing 0.5 mM L-DOPA [3,4-dihydroxy-1-phenylalanine], 10 mM Sodium L-tyrosine in 50 mM phosphate buffer, pH 6.5 was prepared. The KST-201 dilutions were preincubated with the enzyme for 20 minutes. The samples were pipetted into 24 well plates and the master mixture added quickly. The reaction was read using a kinetic format in which wells were read every 30 seconds over a course of 10 minutes at a wavelength of 475 nm using a Synergy HT Plate reader. A kinetic curve was generated for each sample compared to a total reaction with mushroom tyrosinase without a drug (total).

HSV-1 [3] = system: HSV-1
Description: FIG. 2. […] A 10% w/v solution of KST-301 in DMSO was applied topically to the epidermal infection site 3×/day for 5 days. Controls animals received the same volume of the DMSO vehicle at the same intervals. Lesions were scored as 0=no visible lesions, +1=papules around the infection site, +2=papules are ulcerated around the infection site with eschar formation, +3=ulcerated zosteriform spread along peripheral nerves to the flank of the animal, +4=ulcerated lesions open on the flank, and +5=death of the animal.
The lesions were scored as in the description for FIG. 2.

bladder cancer = experiment: Bladder cancer patients (Example VIII B); format: in vivo, human; conditions: intravenous 10 μg to 5 mg/kg over three months
Method: A group of 20 men and 20 women aged 50-75 with bladder cancer are treated by intravenous injection of between 10 μg and 5 mg/kg of KST-201, KST-213, KST-301 or KST-401. Each compound is given to a group of 5 men and 5 women) over a period of three months. Clinical, radiographic and histopathological tests show significant remission in 35% of patients, accompanied by signs of cell death in 45%. There are no significant differences between the results with the four compounds.

advanced cancer = conditions: 10 g oral VC, randomized placebo-controlled trials; cited from earlier work
terminal cancer = conditions: cited from earlier work
[4] = mice; 6.5 g/Kg daily for 6 weeks and 2 g/Kg for 2 years; cited from earlier work
T24 = experiment: MTT cytotoxicity, T24 bladder cancer cells; format: cell-based, human; conditions: Homo sapiens, VC:KST-201 200:1, read-out: CD50 (μM) of each Compound tested in combination, T24
Method: (§1) As a first step, the antitumor activity of the tolans was assessed against a panel of three cancer cells lines that produce solid tumors upon implantation into animals. DU145 is an androgen-independent prostate cancer cells. T24 is a transitional cell bladder carcinoma cell. MDAH2274 (“MDAH) is an endometroid ovarian adenocarcinoma cell. To assess the selectivity of this antitumor activity, the toxicity of the tolans to normal human fibroblasts (MHRF) was examined.
Cell killing was evaluated using the colorimetric MTT assay. The assay measures the formation of a colored product from a chromogenic precursor, the tetrazole 3-[4,5-dimethylthiazol-2-yl]-2,5 diphenyltetrazolium bromide (MTT). The yellow MTT is reduced to purple formazan in the mitochondria of living cells. A solubilization solution (typically dimethyl sulfoxide or sodium dodecyl sulfate in dilute hydrochloric acid) is added to dissolve the insoluble purple formazan product into a colored solution. The absorbance of this colored solution is quantified by measuring at a certain wavelength (usually between 500 and 600 nm) by a spectrophotometer. […] This MTT assay is used widely to assess the cytotoxicity and selectivity of compounds such as anti-cancer drugs. The assay is suitable for rapid toxicity characterization of a test agent such as a drug formulation. […] A lower CD50 indicates a greater cytotoxic activity (as a lower amount of the agent is needed to achieve a fixed level of cytotoxicity). Two agents can be compared by examining the fold-increase or decrease in their CD50 values. […]

MDAH2274 = experiment: MTT cytotoxicity, MDAH2274 ovarian cancer cells; format: cell-based, human; conditions: Homo sapiens
Method: as §1
Cell killing was evaluated using the colorimetric MTT assay. The assay measures the formation of a colored product from a chromogenic precursor, the tetrazole 3-[4,5-dimethylthiazol-2-yl]-2,5 diphenyltetrazolium bromide (MTT). The yellow MTT is reduced to purple formazan in the mitochondria of living cells. A solubilization solution (typically dimethyl sulfoxide or sodium dodecyl sulfate in dilute hydrochloric acid) is added to dissolve the insoluble purple formazan product into a colored solution. The absorbance of this colored solution is quantified by measuring at a certain wavelength (usually between 500 and 600 nm) by a spectrophotometer. […] This MTT assay is used widely to assess the cytotoxicity and selectivity of compounds such as anti-cancer drugs. The assay is suitable for rapid toxicity characterization of a test agent such as a drug formulation. […] A lower CD50 indicates a greater cytotoxic activity (as a lower amount of the agent is needed to achieve a fixed level of cytotoxicity). Two agents can be compared by examining the fold-increase or decrease in their CD50 values.

[5] = intravenous infusion 2 g daily for three weeks

In the case of `Oc1ccc(C#Cc2cc(O)cc(O)c2)cc1` [KST-301, 3,4′,5-trihydroxytolan], the “Reversibility of HSV-1 inhibition after removal of compound” value (HSV-1 [1]; 350 μM, removed as late as 48 hours post infection) is reported as “HSV-1 replication recovered”, the “SI50 (selectivity index, CD50 divided by IC50)” value (HSV-1 [1]; 48 h post-infection) is reported as greater than 63 and the IC50 (HSV-1 [1]; Human alphaherpesvirus 1, Vero, read-out: IC50, concentration at which 50% of HSV-1 replication was inhibited, viral assays at lower compound concentrations) is reported as 6.37 µM. For the same molecule, the “Effect on HSV-1 viral replication in Vero cells (in words)” value (HSV-1 [1]; at CD50, 75% and 50% of CD50, 24, 48, 72 h) was “significant anti-HSV activity”, the “Inhibition of HSV-1 attachment or penetration” value (HSV-1 [2]) was “did not inhibit HSV-1 attachment or penetration” and the “Direct inactivation of HSV-1” value (HSV-1 [2]; incubated with HSV-1 at room temperature 1, 30 or 60 minutes) was “did not directly inactivate HSV-1”. The “Patients with significant shrinkage in tumors, and signs of cell death” value (prostate cancer) was 38%, the “Breast cancer or metastatic cancer in high-risk group” value (breast cancer) was “does not show any evidence of breast cancer or other metastatic cancer” and the “Rate of production of ovarian cancer markers (Muc-1, Sp17)” value (ovarian cancer) was “significant decrease”. For the same molecule, the “Tumor growth during study period” value (ovarian cancer) was “Tumors regress or show no further growth”, the “Dissemination of the tumors” value (colon cancer; daily bolus injections (intravenous or intramuscular) of 2 g) was “dissemination of the tumors is diminished” and the “Cancer marker carcinoembryonic antigen (CEA)” value (colon cancer; [5]) was “significant reduction”. The “Progression of the tumor” value (colon cancer; [5]) was “arrested”, the CD50 (Vero cells) was 350 µM and the “Log CD50” value (Vero cells) was 2.54. The “% inhibition of mushroom tyrosinase activity” value (Mushroom tyrosinase) was 40.1±9.9%, the “Number and severity of HSV lesions” value (HSV-1 [3]; 5% w/v solution, topical, hairless mice) was “significantly reduced the number and severity of HSV lesions” and the “Severity of HSV-1 lesions” value (HSV-1 [3]; 10% w/v solution in DMSO, topical 3×/day for 5 days, hairless mice) was “significantly reduced”. For the same molecule, the “Treated animals in which lesion formation was prevented” value (HSV-1 [3]; topical solution in DMSO) was 67%, the “Treated animals showing evidence of HSV infection” value (HSV-1 [3]; topical solution in DMSO, controls 83-100%) was 33% and the “Maximum (average) lesion score” value (HSV-1 [3]; topical solution in DMSO, scale 0 to +5, controls 3.8-4 by days 8 and 9) was 0.8-1.2. For the same molecule, the “Dermal toxicity (erythema, scaling, crusting, lichenification, excoriation)” value (HSV-1 [3]; topical, hairless mice) was “no apparent dermal toxicity”, the “Patients with signs of cell death” value (bladder cancer) was 45% and the “Patients with significant remission” value (bladder cancer; no differences between compounds) was 35%.

For `O=C1O[C@H]([C@@H](O)CO)C([O-])=C1O.[Na+]` [VC, sodium ascorbate, reference compound], the “Benefit of oral VC treatment” value (advanced cancer) is listed as “no benefits of oral VC treatment”, the “Mean survival time (MST)” value (terminal cancer; 100 terminal cancer patients, 10 g/day i.v. 10 days then oral, controls 50 days) is listed as greater than 210 days and the “MST, times greater than that of the controls” value (terminal cancer; 100 terminal cancer patients) is listed as “more than 4.2 times”. The “MST of subjects with ovarian cancer” value (terminal cancer; six ovarian cancer subjects, controls 71 days) was 148 days, the “Mortality, weight changes, blood chemistry, hematology, histology, other pathologies” value [4] was “no abnormal rates of mortality” and the IC50 (T24; T-24, 24 h, 1 day) was 638 µM. It also gave an IC50 (T24; T-24, 48 h, 2 days) of 634 µM, an IC50 (MDAH2274; 24 h, MTT, 1 day incubation, read-out: CD50 against MDAH, compound tested individually) of 937 µM and an IC50 (MDAH2274; 24 h, VC:KST-201 400:1, 1 day, read-out: CD50 (μM) of each Compound tested in combination, MDAH 2274) of 466 µM. It also gave an IC50 (MDAH2274; 48 h, MTT, 2 days incubation, read-out: CD50 against MDAH, compound tested individually) of 900 ± 46.7 µM, an IC50 (MDAH2274; 48 h, VC:KST-201 400:1, 2 days, read-out: CD50 (μM) of each Compound tested in combination, MDAH 2274) of 389 ± 9.6 µM and an IC50 (MDAH2274; 72 h, MTT, 3 days incubation, read-out: CD50 against MDAH, compound tested individually) of 879 µM. For the same molecule, the IC50 (MDAH2274; 72 h, VC:KST-201 400:1, 3 days, read-out: CD50 (μM) of each Compound tested in combination, MDAH 2274) was 393 µM.
